Measured values reported in patent US9051325B2, “Bicyclic [5,6] imidazo pyrimodone compounds for use in the treatment of diseases or conditions mediated by Lp-PLA2” (GlaxoSmithKline Intellectual Property Development Limited, priority 2013, dated 2015).
Read-outs that look alike come from different tables or passages of the source.

Tests used:
[1] = target: T1, recombinant human Lp-PLA2 (Homo sapiens, UniProt Q13093); test: Recombinant human Lp-PLA2 assay (rhLp-PLA2, PED6 assay); format: biochemical
T1 sequence (Q13093 22-441): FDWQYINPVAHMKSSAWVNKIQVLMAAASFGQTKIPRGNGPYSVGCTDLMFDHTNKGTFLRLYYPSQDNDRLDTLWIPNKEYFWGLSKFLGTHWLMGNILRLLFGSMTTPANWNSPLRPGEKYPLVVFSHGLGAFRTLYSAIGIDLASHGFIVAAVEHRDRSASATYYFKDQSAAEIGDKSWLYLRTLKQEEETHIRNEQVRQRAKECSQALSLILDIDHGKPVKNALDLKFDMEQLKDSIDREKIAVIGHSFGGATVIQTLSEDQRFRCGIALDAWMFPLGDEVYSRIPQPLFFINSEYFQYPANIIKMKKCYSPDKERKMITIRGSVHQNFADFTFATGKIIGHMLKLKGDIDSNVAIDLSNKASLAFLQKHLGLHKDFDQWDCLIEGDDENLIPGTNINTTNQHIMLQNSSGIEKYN
In short: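 Compounds were preincubated 30 min with 4 nM […] rhLp-PLA2 in 50 mM HEPES pH 7.4, 150 mM NaCl, 1 mM CHAPS, then PED6 substrate […] was added for 20 min at room temperature in the dark. Fluorescence was read at ex 480/em 540, and pIC50 was fitted from 1:3 serial dilutions.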

[2] = target: T2, Lp-PLA2 in human plasma (Homo sapiens, UniProt Q13093); test: Lp-PLA2 human plasma assay (Thio-PAF assay); format: biochemical; details: pooled human plasma; lower bounds; read-out: pIC50 values in the thio-PAF assay (converted)
T2 construct: from tissue; host or cells: pooled human plasma
T2 sequence (Q13093 22-441): T1 sequence (Q13093 22-441)
In short: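 Pooled human plasma preincubated 30 min with compounds, then given 2-thio-PAF substrate with CPM and NEM in 50 mM HEPES pH 7.4, 150 mM NaCl, 1 mM CHAPS. Reaction quenched after 2 min with TFA and read by fluorescence (ex 380/em 485) after 40 min at room temperature; pIC50 from curve fit.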

[3] = lower bounds, read-out: pIC50 values in the PED6 assay (converted)
[4] = read-out: rhLp-PLA2 (PED6 assay) (pIC50) (converted)

Which results are given for `C[C@H]1Cn2c(cc(OCc3ccc(F)c(C#N)c3)nc2=O)N1` [Example E74, (S)-2-fluoro-5-(((2-methyl-5-oxo-1,2,3,5-tetrahydroimidazo[1,2-c]pyrimidin-7-yl)oxy)methyl)benzonitrile]?
IC50 [1, 3]: ≤ 10 nM; IC50 [2]: ≤ 100 nM

`C[C@H]1Cn2c(cc(OCc3ccc(F)c(C#N)c3)nc2=O)N1C` [Example E75, (S)-5-(((1,2-dimethyl-5-oxo-1,2,3,5-tetrahydroimidazo[1,2-c]pyrimidin-7-yl)oxy)methyl)-2-fluorobenzonitrile] was tested. Which IC50 [1, 3] did it give?
The IC50 was at most 10 nM.

And the IC50 [2]?
The IC50 was at most 100 nM.

`CN1c2cc(OCc3ccc(F)cc3F)nc(=O)n2CC1(C)C` [Example E77, 7-((2,4-difluorobenzyl)oxy)-1,2,2-trimethyl-2,3-dihydroimidazo[1,2-c]pyrimidin-5(1H)-one] was tested. Which IC50 [1, 3] did it give?
The IC50 was at most 10 nM.

What about the IC50 [2] of the same compound?
Its IC50 is at most 100 nM.

How did the IC50 [1, 3] turn out when `C[C@H]1Cn2c(cc(OCc3ccc(Oc4ccnc(C(F)(F)F)c4)c(F)c3)nc2=O)N1` [Example E78, (S)-7-((3-fluoro-4-((2-(trifluoromethyl)pyridin-4-yl)oxy)benzyl)oxy)-2-methyl-2,3-dihydroimidazo[1,2-c]pyrimidin-5(1H)-one] was run?
Its IC50 is at most 1 nM.

And the IC50 [2]?
The IC50 was at most 100 nM.

What does the source list for `CC1(C)Cn2c(cc(OCc3ccc(Oc4ccnc(Cl)c4)c(F)c3)nc2=O)N1` [Example E82, 7-((4-((2-chloropyridin-4-yl)oxy)-3-fluorobenzyl)oxy)-2,2-dimethyl-2,3-dihydroimidazo[1,2-c]pyrimidin-5(1H)-one]?
IC50 [1, 3]: ≤ 1 nM; IC50 [2]: ≤ 100 nM

Which results are given for `C[C@H]1Cn2c(cc(OCc3ccc(Oc4ccc(F)c(F)c4)c(C#N)c3)nc2=O)N1C` [Example E88, (S)-2-(3,4-difluorophenoxy)-5-(((1,2-dimethyl-5-oxo-1,2,3,5-tetrahydroimidazo[1,2-c]pyrimidin-7-yl)oxy)methyl)benzonitrile]?
IC50 [1, 3]: ≤ 1 nM; IC50 [2]: ≤ 100 nM

How did the IC50 [1, 3] turn out when `C[C@H]1Cn2c(cc(OCc3ccc(Oc4ccc(Cl)c(C#N)c4)c(F)c3)nc2=O)N1C` [Example E89, (S)-2-chloro-5-(4-(((1,2-dimethyl-5-oxo-1,2,3,5-tetrahydroimidazo[1,2-c]pyrimidin-7-yl)oxy)methyl)-2-fluorophenoxy)benzonitrile] was run?
The IC50 was at most 1 nM.

And the IC50 [2]?
Its IC50 is at most 100 nM.

For `CC1(C)Cn2c(cc(OCc3ccc(Oc4cncc(Cl)c4)c(F)c3)nc2=O)N1` [Example E90, 7-((4-((5-chloropyridin-3-yl)oxy)-3-fluorobenzyl)oxy)-2,2-dimethyl-2,3-dihydroimidazo[1,2-c]pyrimidin-5(1H)-one], which IC50 [1, 3] is on record?
Its IC50 is at most 1 nM.

What about the IC50 [2] of the same compound?
The IC50 was at most 100 nM.

What does the source list for `CC1(C)Cn2c(cc(OCc3cc(F)c(Oc4cncc(C(F)(F)F)c4)c(F)c3)nc2=O)N1` [Example E91, 7-((3,5-difluoro-4-((5-(trifluoromethyl)pyridin-3-yl)oxy)benzyl)oxy)-2,2-dimethyl-2,3-dihydroimidazo[1,2-c]pyrimidin-5(1H)-one]?
IC50 [1, 3]: ≤ 1 nM; IC50 [2]: ≤ 100 nM

For `[2H]C([2H])(Oc1cc2n(c(=O)n1)CC(C)(C)N2C)c1cc(F)cc(F)c1` [Example E93, 7-(dideutero(3,5-difluorobenzyl)oxy)-1,2,2-trimethyl-2,3-dihydroimidazo[1,2-c]pyrimidin-5(1H)-one], which IC50 [1, 3] is on record?
Its IC50 is at most 10 nM.

What about the IC50 [2] of the same compound?
Its IC50 is at most 100 nM.

What does the source list for `CN1c2cc(OCc3cc(F)c(Oc4cnc(C(F)(F)F)nc4)c(F)c3)nc(=O)n2CC1(C)C` [Example E95, 7-((3,5-difluoro-4-((2-(trifluoromethyl)pyrimidin-5-yl)oxy)benzyl)oxy)-1,2,2-trimet-hyl-2,3-dihydroimidazo[1,2-c]pyrimidin-5(1H)-one]?
IC50 [1, 3]: ≤ 1 nM; IC50 [1, 4]: 0.0794 nM; IC50 [2]: ≤ 100 nM

For `CC(C)N1c2cc(OCc3cc(F)cc(F)c3)nc(=O)n2CC1(C)C` [Example E96, 7-((3,5-difluorobenzyl)oxy)-1-isopropyl-2,2-dimethyl-2,3-dihydroimidazo[1,2-c]pyrimidin-5(1H)-one], which IC50 [1, 3] is on record?
Its IC50 is at most 1 nM.

What about the IC50 [1, 4] of the same compound?
Its IC50 is 0.316 nM.

And the IC50 [2]?
Its IC50 is at most 100 nM.

What does the source list for `[2H]C([2H])(Oc1cc2n(c(=O)n1)CC(C)(C)N2C(C)C)c1cc(F)cc(F)c1` [Example E97, 7-(dideutero(3,5-difluorobenzyl)oxy)-1-isopropyl-2,2-dimethyl-2,3-dihydroimidazo[1,2-c]pyrimidin-5(1H)-one]?
IC50 [1, 3]: ≤ 1 nM; IC50 [1, 4]: 0.631 nM; IC50 [2]: ≤ 100 nM

With `CN1c2cc(OCc3ccc(Oc4ccc(F)nc4)c(F)c3)nc(=O)n2CC1(C)C` [Example E98, 7-((3-fluoro-4-((6-fluoropyridin-3-yl)oxy)benzyl)oxy)-1,2,2-trimethyl-2,3-dihydroimidazo[1,2-c]pyrimidin-5(1H)-one] as the compound, how does the IC50 [1, 3] read?
Its IC50 is at most 1 nM.

And the IC50 [2]?
Its IC50 is at most 100 nM.

How did the IC50 [1, 3] turn out when `CC1(C)Cn2c(cc(OCc3cc(F)c(Oc4cnc(C(F)(F)F)nc4)c(F)c3)nc2=O)N1` [Example E100, 7-((3,5-difluoro-4-((2-(trifluoromethyl)pyrimidin-5-yl)oxy)benzyl)oxy)-2,2-dimethyl-2,3-dihydroimidazo[1,2-c]pyrimidin-5(1H)-one] was run?
Its IC50 is at most 1 nM.

What about the IC50 [2] of the same compound?
The IC50 was at most 100 nM.

`CC1(C)Cn2c(cc(OCc3ccc(Oc4cnc(C(F)(F)F)nc4)c(F)c3)nc2=O)N1` [Example E101, 7-((3-fluoro-4-((2-(trifluoromethyl)pyrimidin-5-yl)oxy)benzyl)oxy)-2,2-dimethyl-2,3-dihydroimidazo[1,2-c]pyrimidin-5(1H)-one] was tested. Which IC50 [1, 3] did it give?
The IC50 was at most 1 nM.

And the IC50 [2]?
The IC50 was at most 100 nM.

Which results are given for `[2H]C([2H])(Oc1cc2n(c(=O)n1)CC(C)(C)N2CC)c1cccc(F)c1F` [Example E102, 7-(dideutero(2,3-difluorobenzyl)oxy)-1-ethyl-2,2-dimethyl-2,3-dihydroimidazo[1,2-c]pyrimidin-5(1H)-one]?
IC50 [1, 3]: ≤ 10 nM; IC50 [2]: ≤ 100 nM

What does the source list for `CN1c2cc(OCc3cccc(F)c3F)nc(=O)n2CC1(C)C` [Example E103, 7-((2,3-difluorobenzyl)oxy)-1,2,2-trimethyl-2,3-dihydroimidazo[1,2-c]pyrimidin-5(1H)-one]?
IC50 [1, 3]: ≤ 10 nM; IC50 [2]: ≤ 100 nM

With `[2H]C([2H])([2H])N1c2cc(OCc3cccc(F)c3F)nc(=O)n2CC1(C)C` [Example E104, 7-((2,3-difluorobenzyl)oxy)-1-trideuteromethyl-2,2-dimethyl-2,3-dihydroimidazo[1,2-c]pyrimidin-5(1H)-one] as the compound, how does the IC50 [1, 3] read?
The IC50 was at most 10 nM.

What about the IC50 [2] of the same compound?
Its IC50 is at most 100 nM.

Which IC50 [1, 3] does the source give for `[2H]C([2H])(Oc1cc2n(c(=O)n1)CC(C)(C)N2C(C)C)c1cccc(F)c1F` [Example E105, 7-(dideutero(2,3-difluorobenzyl)oxy)-1-isopropyl-2,2-dimethyl-2,3-dihydroimidazo-[1,2-c]pyrimidin-5(1H)-one] here?
Its IC50 is at most 1 nM.

And the IC50 [1, 4]?
Its IC50 is 0.631 nM.

And the IC50 [2]?
The IC50 was at most 100 nM.

With `C[C@@H]1Cn2c(cc(OCc3ccc(F)c(F)c3)nc2=O)N1C` [Example E106, (R)-7-((3,4-difluorobenzyl)oxy)-1,2-dimethyl-2,3-dihydroimidazo[1,2-c]pyrimidin-5(1H)-one] as the compound, how does the IC50 [1, 3] read?
The IC50 was at most 10 nM.

And the IC50 [2]?
Its IC50 is at most 100 nM.

Which IC50 [1, 3] does the source give for `C[C@@H]1Cn2c(cc(OCc3ccc(Oc4ccc(C(F)(F)F)nc4)c(F)c3)nc2=O)N1C` [Example E107, (R)-7-((3-fluoro-4-((6-(trifluoromethyl)pyridin-3-yl)oxy)benzyl)oxy)-1,2-dimethyl-2,3-dihydroimidazo[1,2-c]pyrimidin-5(1H)-one] here?
Its IC50 is at most 1 nM.

And the IC50 [2]?
Its IC50 is at most 100 nM.

`C[C@H]1Cn2c(cc(OCc3cc(F)c(F)c(F)c3)nc2=O)N1C` [Example E108, (S)-1,2-dimethyl-7-((3,4,5-trifluorobenzyl)oxy)-2,3-dihydroimidazo[1,2-c]pyrimidin-5(1H)-one] was tested. Which IC50 [1, 3] did it give?
Its IC50 is at most 10 nM.

And the IC50 [2]?
The IC50 was at most 100 nM.

What does the source list for `CN1c2cc(OCc3cc(F)c(F)c(F)c3)nc(=O)n2CC1(C)C` [Example E110, 1,2,2-trimethyl-7-((3,4,5-trifluorobenzyl)oxy)-2,3-dihydroimidazo[1,2-c]pyrimidin-5(1H)-one]?
IC50 [1, 3]: ≤ 10 nM; IC50 [2]: ≤ 100 nM

With `CN1c2cc(OCc3ccc(Oc4ccc(C(F)(F)F)nc4)c(F)c3)nc(=O)n2CC1(C)C` [Example E112, 7-((3-fluoro-4-((6-(trifluoromethyl)pyridin-3-yl)oxy)benzyl)oxy)-1,2,2-trimethyl-2,3-dihydroimidazo[1,2-c]pyrimidin-5(1H)-one] as the compound, how does the IC50 [1, 3] read?
Its IC50 is at most 1 nM.

What about the IC50 [2] of the same compound?
Its IC50 is at most 100 nM.

For `CN1c2cc(OCc3cc(F)c(Oc4cncc(Cl)c4)c(F)c3)nc(=O)n2CC1(C)C` [Example E113, 7-((4-((5-chloropyridin-3-yl)oxy)-3,5-difluorobenzyl)oxy)-1,2,2-trimethyl-2,3-dihydroimidazo[1,2-c]pyrimidin-5(1H)-one], which IC50 [1, 3] is on record?
Its IC50 is at most 1 nM.

And the IC50 [2]?
The IC50 was at most 100 nM.

Which results are given for `CN1c2cc(OCc3cc(F)cc(F)c3)nc(=O)n2CC1(C)C` [Example E114, 7-((3,5-difluorobenzyl)oxy)-1,2,2-trimethyl-2,3-dihydroimidazo[1,2-c]pyrimidin-5(1H)-one]?
IC50 [1, 3]: ≤ 1 nM; IC50 [1, 4]: 0.794 nM; IC50 [2]: ≤ 100 nM
